# Tests used:
# [1] = tested on: HUVEC; test: Inhibition of VEGF-stimulated angiogenesis in HUVECs at 1 uM relative to control; assay type: functional; settings: Homo sapiens
# [2] = tested on: HUVEC; test: Inhibition of VEGF-stimulated angiogenesis in HUVECs; assay type: functional, cell-based; settings: Homo sapiens
Structure (SMILES),inhibition at 1 µM [1] [%],Activity [2]
Cc1cc(C)c(/C=C2\C(=O)Nc3ccccc32)[nH]1 [SEMAXANIB],94,
Cc1cc(C)c(/C=C2\C(=O)N(Cc3ccc([N+](=O)[O-])cc3)c3ccccc32)[nH]1,,Dose-dependent effect
